Reference: patent US10538517B2, “Quinolone derivatives as FGFR inhibitors” (Principia Biopharma, Inc., priority 2015, dated 2020)

Tests used:
[1] = test system: SNU-16 human gastric cancer cell line xenograft; assay: Human gastric tumor (HGS) xenograft model; assay type: in vivo, mice; details: day 42 after inoculation, 20/kg of compound (vehicle group 645)
Protocol: Human Gastric Tumor Model:
SNU-16 human gastric cancer cell line can be used to generate a xenograft model to determine the effects of a FGFR inhibitor of the present disclosure (test compound) as a single agent treatment to target FGFR-dependent tumor growth. SNU-16 cells are grown in tissue culture as described in Example 2 above. For tumor inoculation, approximately 1×10^7 cells are mixed with Matrigel (1:1) and are implanted into the rear flank of immuno compromised Balb/c nu/nu mice. Tumor-bearing mice are monitored twice weekly in two dimensions using a caliper and the volume expressed in mm^3 using the formula: V=0.5 a×b^2 where a and b are the long and short diameters of the tumor respectively. Once tumor volume reaches a mean average of 175 mm^3 mice are randomized into 3 groups (n=8-10 per group) receiving either vehicle control (0.5% methyl cellulose w/w) or the test compound by oral gavage. Dosing continues for 5-21 days with tumor volumes measured daily or every other day. It is expected that tumor growth will be inhibited in animals treated with the test compound. […] Inhibition of FGFR pathway can be assessed by detection of FGFR auto phosphorylation activity. […] Tumor samples are collected at 8 h or 12 h post the last dosing and FGFR auto phosphorylation activity is determined. […]

[2] = test system: SNU-16 cells; assay: Inhibition of FGFR2-dependent cell growth (Cell-titer Glo); assay type: cell-based; details: Homo sapiens, SNU-16, 72 h, 72 hrs incubation, cell viability, read-out: SNU16 IC50 values
Protocol: The cell-based effects of FGFR inhibitors were determined by measuring inhibition of FGFR-dependent cell line growth. The cell lines SNU-16 was used for these assays. […] Percent inhibition of cell growth was calculated as a percentage of untreated cell viability. The percent inhibition was plotted as a function of log compound concentration. The IC50 was then calculated for each compound using Prism software from GraphPad.

Row | Compound | tumor size [1] | IC50 [2]
1 | C=CC(=O)N1CCN(CCCn2c(=O)c(-c3c(Cl)c(OC)cc(OC)c3Cl)cc3cnc(NC)nc32)CC1 [8-(3-(4-acryloylpiperazin-1-yl)propyl)-6-(2,6-dichloro-3,5-dimethoxyphenyl)-2-(methylamino)pyrido[2,3-d]pyrimidin-7(8H)-one] | 55 mm3 | –
2 | CNc1ncc2cc(-c3cc(OC)cc(OC)c3Cl)c(=O)n(CCc3csc(NC(=O)C(C#N)=CC(C)(C)C)n3)c2n1 [Cpd 67 (table 2), N-(4-(2-(6-(2-chloro-3,5-dimethoxyphenyl)-2-(methylamino)-7-oxopyrido[2,3-d]pyrimidin-8(7H)-yl)ethyl)thiazol-2-yl)-2-cyano-4,4-dimethylpent-2-enamide] | – | 936 nM
3 | CNc1ncc2cc(-c3cc(OC)cc(OC)c3Cl)c(=O)n(CCc3ccc(NC(=O)C(C#N)=CC(C)(C)N(C)C4COC4)cc3)c2n1 [Cpd 29 (table 2), N-(4-(2-(6-(2-chloro-3,5-dimethoxyphenyl)-2-(methylamino)-7-oxopyrido[2,3-d]pyrimidin-8(7H)-yl)ethyl)phenyl)-2-cyano-4-methyl-4-(methyl(oxetan-3-yl)amino)pent-2-enamide] | – | 1.4 nM
4 | CNc1ncc2cc(-c3cc(OC)cc(OC)c3Cl)c(=O)n(CCc3cccc(N(C)C(=O)C(C#N)=CC(C)(C)N(C)C)c3)c2n1 [Cpd 39 (table 2), N-(3-(2-(6-(2-chloro-3,5-dimethoxyphenyl)-2-(methylamino)-7-oxopyrido[2,3-d]pyrimidin-8(7H)-yl)ethyl)phenyl)-2-cyano-4-(dimethylamino)-N,4-dimethylpent-2-enamide] | – | 40.2 nM
